Patent publication US20030153623A1, “Solid preparation containing sparingly soluble NSAIDs” (Yamanouchi Pharmaceutical Co., Ltd., priority 1998, published 2003)

Columns and labels:
Assay type in all cases: physicochemical
[1] = Dissolution test, puddle method, first solution pH 1.2, various chemicals (Test Example 5); conditions: raw material of the chemical; dissolved for 5 minutes; first solution (pH 1.2) 500 ml; 50 rpm; a dose of each chemical
Protocol: Samples 8-1 and 8-9, and raw materials of various chemicals as the control, were examined by the puddle method in an dissolution test according to the Japanese Pharmacopoeia, and the amount of ibuprofen (μg/ml) dissolved for 5 minutes in the test was determined. The test solution used was the first solution (pH 1.2) in a disintegration test in the Japanese Pharmacopoeia, the amount of the dissolution medium was 500 ml, and the number of puddle revolutions was 50 rpm. Each sample contains a dose of each chemical.

[2] = Dissolution test, puddle method, Japanese Pharmacopoeia, water (Test Example 1); conditions: ibuprofen dissolved for 5 minutes; water 500 ml; 100 rpm; ibuprofen content 150 mg
Protocol: Each sample was tested by the puddle method in an dissolution test according to the Japanese Pharmacopoeia, and the amount of ibuprofen (μg/ml) dissolved for 5 minutes in the test was determined. Water was used as the test solution, the amount of the dissolution medium was 500 ml, and the number of puddle revolutions was 100 rpm. The raw ibuprofen material, Samples 5-1 to 5-7, and Sample 6 were examined respectively in the test. The content of ibuprofen in every sample was 150 mg.

[3] = Dissolution test, puddle method, first solution pH 1.2 (Test Example 4)
Protocol: Samples 7-1 and 7-9, and the raw ibuprofen powder as the control, were examined by the puddle method in an dissolution test according to the Japanese Pharmacopoeia, and the amount of ibuprofen (μg/ml) dissolved for 5 minutes in the test was determined. The test solution used was a first solution (pH 1.2) in a disintegration test in the Japanese Pharmacopoeia, the amount of the dissolutuion medium was 500 ml, and the number of puddle revolutions was 50 rpm. The content of ibuprofen in every sample was 150 mg.

Compound: CC(C(=O)O)c1ccc(-c2ccccc2)c(F)c1 (stereo not shown) [Flurbiprofen]
- Dissolved amount, Control [1]: 0.22 µg/mL

Compound: CC(C)Cc1ccc(C(C)C(=O)O)cc1 (stereo not shown) [Ibuprofen, ibuprofen]
- Dissolved amount, Control [1]: 0.00 µg/mL
- Dissolved amount [2]: 5.7 µg/mL
- Solubility in first solution (pH 1.2), in words ([3]; first solution (pH 1.2) of the disintegration test): not dissolved
- Dissolved amount ([3]; ibuprofen dissolved for 5 minutes, first solution (pH 1.2) 500 ml, 50 rpm, ibuprofen content 150 mg): 0.00 µg/mL

Compound: COc1ccc2c(c1)c(CC(=O)O)c(C)n2C(=O)c1ccc(Cl)cc1 [Indomethacin]
- Dissolved amount, Control [1]: 0.09 µg/mL

Compound: CC(C(=O)O)c1cccc(C(=O)c2ccccc2)c1 (stereo not shown) [Ketoprofen]
- Dissolved amount, Control [1]: 1.57 µg/mL

Compound: CC(C(=O)O)c1ccc(CC2CCCC2=O)cc1 (stereo not shown) [Loxoprofen]
- Dissolved amount, Control [1]: 101.73 µg/mL

Compound: CC(C(=O)O)c1cccc(Oc2ccccc2)c1 (stereo not shown) [Phenoprofen]
- Dissolved amount, Control [1]: 11.47 µg/mL

Compound: CC(C(=O)O)c1ccc2c(c1)Cc1cccnc1O2 (stereo not shown) [Pranoprofen]
- Dissolved amount, Control [1]: 17.81 µg/mL
